Laboratory results as given in the NIST ThermoML archive (doi:10.1016/j.tca.2015.06.017).
± gives the expanded uncertainty stated by the source.

Experiment: xn = mol fraction of the nth substance listed
Conditions: Liquid, Vibrating tube method

CC(C)(C)Cl [2-chloro-2-methylpropane] + CCCCCCC
mass density [kg/m3]
Conditions | 293.15 K | 298.15 K
100 kPa, x2 = 0.0554 | – | 824.75 ± 0.24
100 kPa, x2 = 0.1017 | – | 814.99 ± 0.24
100 kPa, x2 = 0.2004 | – | 795.33 ± 0.24
100 kPa, x2 = 0.3016 | – | 776.67 ± 0.24
100 kPa, x2 = 0.4097 | – | 758.26 ± 0.24
100 kPa, x2 = 0.498 | – | 744.32 ± 0.24
100 kPa, x2 = 0.5983 | – | 729.58 ± 0.25
100 kPa, x2 = 0.7017 | – | 715.49 ± 0.25
100 kPa, x2 = 0.7995 | – | 703.09 ± 0.25
100 kPa, x2 = 0.9032 | – | 690.79 ± 0.25
100 kPa, x2 = 0.9482 | – | 685.68 ± 0.25
2000 kPa, x2 = 0.0554 | – | 827.29 ± 0.25
2000 kPa, x2 = 0.1017 | – | 817.46 ± 0.25
2000 kPa, x2 = 0.2004 | – | 797.78 ± 0.25
2000 kPa, x2 = 0.3016 | – | 778.97 ± 0.26
2000 kPa, x2 = 0.4097 | – | 760.5 ± 0.26
2000 kPa, x2 = 0.498 | – | 746.66 ± 0.26
2000 kPa, x2 = 0.5983 | – | 731.77 ± 0.26
2000 kPa, x2 = 0.7017 | – | 717.66 ± 0.27
2000 kPa, x2 = 0.7995 | – | 705.19 ± 0.27
2000 kPa, x2 = 0.9032 | – | 692.86 ± 0.27
2000 kPa, x2 = 0.9482 | – | 687.76 ± 0.27
5000 kPa, x2 = 0.0554 | – | 831.22 ± 0.27
5000 kPa, x2 = 0.1017 | – | 821.35 ± 0.27
5000 kPa, x2 = 0.2004 | – | 801.38 ± 0.28
5000 kPa, x2 = 0.3016 | – | 782.63 ± 0.28
5000 kPa, x2 = 0.4097 | – | 763.93 ± 0.29
5000 kPa, x2 = 0.498 | – | 749.94 ± 0.29
5000 kPa, x2 = 0.5983 | – | 734.95 ± 0.29
5000 kPa, x2 = 0.7017 | – | 720.69 ± 0.3
5000 kPa, x2 = 0.7995 | – | 708.17 ± 0.3
5000 kPa, x2 = 0.9032 | – | 695.72 ± 0.3
5000 kPa, x2 = 0.9482 | – | 690.58 ± 0.31
7000 kPa, x2 = 0.0554 | – | 833.69 ± 0.28
7000 kPa, x2 = 0.1017 | – | 823.79 ± 0.29
7000 kPa, x2 = 0.2004 | – | 803.89 ± 0.29
7000 kPa, x2 = 0.3016 | – | 784.93 ± 0.3
7000 kPa, x2 = 0.4097 | – | 766.14 ± 0.3
7000 kPa, x2 = 0.498 | – | 752.1 ± 0.31
7000 kPa, x2 = 0.5983 | – | 737.06 ± 0.31
7000 kPa, x2 = 0.7017 | – | 722.75 ± 0.32
7000 kPa, x2 = 0.7995 | – | 710.2 ± 0.32
7000 kPa, x2 = 0.9032 | – | 697.64 ± 0.33
7000 kPa, x2 = 0.9482 | – | 692.49 ± 0.33
10000 kPa, x2 = 0.0554 | – | 837.41 ± 0.3
10000 kPa, x2 = 0.1017 | – | 827.3 ± 0.3
10000 kPa, x2 = 0.2004 | – | 807.34 ± 0.31
10000 kPa, x2 = 0.3016 | – | 788.26 ± 0.32
10000 kPa, x2 = 0.4097 | – | 769.41 ± 0.33
10000 kPa, x2 = 0.498 | – | 755.22 ± 0.34
10000 kPa, x2 = 0.5983 | – | 740.1 ± 0.34
10000 kPa, x2 = 0.7017 | – | 725.72 ± 0.35
10000 kPa, x2 = 0.7995 | – | 712.96 ± 0.36
10000 kPa, x2 = 0.9032 | – | 700.3 ± 0.36
10000 kPa, x2 = 0.9482 | – | 695.09 ± 0.36
20000 kPa, x2 = 0.0554 | – | 848.71 ± 0.35
20000 kPa, x2 = 0.1017 | – | 838.45 ± 0.36
20000 kPa, x2 = 0.2004 | – | 818.1 ± 0.38
20000 kPa, x2 = 0.3016 | – | 798.58 ± 0.39
20000 kPa, x2 = 0.4097 | – | 779.66 ± 0.41
20000 kPa, x2 = 0.498 | 769.27 ± 0.42 | 765.11 ± 0.42
20000 kPa, x2 = 0.5983 | 753.74 ± 0.43 | 749.57 ± 0.43
20000 kPa, x2 = 0.7017 | 738.84 ± 0.44 | 734.93 ± 0.45
20000 kPa, x2 = 0.7995 | 725.88 ± 0.45 | 721.79 ± 0.46
20000 kPa, x2 = 0.9032 | 712.92 ± 0.47 | 708.9 ± 0.47
20000 kPa, x2 = 0.9482 | 707.57 ± 0.47 | 703.58 ± 0.47
30000 kPa, x2 = 0.0554 | 863.54 ± 0.39 | 858.8 ± 0.4
30000 kPa, x2 = 0.1017 | 853.13 ± 0.41 | 848.35 ± 0.41
30000 kPa, x2 = 0.2004 | 832.13 ± 0.43 | 827.76 ± 0.44
30000 kPa, x2 = 0.3016 | 812.29 ± 0.45 | 807.95 ± 0.46
30000 kPa, x2 = 0.4097 | 792.63 ± 0.48 | 788.48 ± 0.48
30000 kPa, x2 = 0.498 | 777.78 ± 0.5 | 773.73 ± 0.5
30000 kPa, x2 = 0.5983 | 762.02 ± 0.52 | 758.07 ± 0.52
30000 kPa, x2 = 0.7017 | 746.9 ± 0.53 | 743.08 ± 0.54
30000 kPa, x2 = 0.7995 | 733.66 ± 0.55 | 729.79 ± 0.56
30000 kPa, x2 = 0.9032 | 720.51 ± 0.57 | 716.58 ± 0.57
30000 kPa, x2 = 0.9482 | 715.09 ± 0.57 | 711.27 ± 0.58
40000 kPa, x2 = 0.0554 | 872.42 ± 0.43 | 867.89 ± 0.44
40000 kPa, x2 = 0.1017 | 862.05 ± 0.45 | 857.39 ± 0.45
40000 kPa, x2 = 0.2004 | 840.65 ± 0.48 | 836.44 ± 0.49
40000 kPa, x2 = 0.3016 | 820.63 ± 0.51 | 816.41 ± 0.52
40000 kPa, x2 = 0.4097 | 800.54 ± 0.55 | 796.66 ± 0.55
40000 kPa, x2 = 0.498 | 785.54 ± 0.57 | 781.69 ± 0.58
40000 kPa, x2 = 0.5983 | 769.5 ± 0.6 | 765.72 ± 0.6
40000 kPa, x2 = 0.7017 | 754.19 ± 0.62 | 750.52 ± 0.63
40000 kPa, x2 = 0.7995 | 740.77 ± 0.64 | 737.07 ± 0.65
40000 kPa, x2 = 0.9032 | 727.37 ± 0.66 | 723.74 ± 0.67
40000 kPa, x2 = 0.9482 | 721.88 ± 0.67 | 718.29 ± 0.68
50000 kPa, x2 = 0.0554 | 880.62 ± 0.46 | 876.38 ± 0.47
50000 kPa, x2 = 0.1017 | 870 ± 0.49 | 865.68 ± 0.49
50000 kPa, x2 = 0.2004 | 848.46 ± 0.53 | 844.44 ± 0.54
50000 kPa, x2 = 0.3016 | 828.17 ± 0.57 | 824.32 ± 0.58
50000 kPa, x2 = 0.4097 | 807.96 ± 0.61 | 804.27 ± 0.61
50000 kPa, x2 = 0.498 | 792.71 ± 0.64 | 789.1 ± 0.65
50000 kPa, x2 = 0.5983 | 776.5 ± 0.67 | 772.96 ± 0.68
50000 kPa, x2 = 0.7017 | 761.01 ± 0.7 | 757.53 ± 0.71
50000 kPa, x2 = 0.7995 | 747.33 ± 0.73 | 743.9 ± 0.74
50000 kPa, x2 = 0.9032 | 733.84 ± 0.76 | 730.37 ± 0.76
50000 kPa, x2 = 0.9482 | 728.3 ± 0.77 | 724.81 ± 0.77
60000 kPa, x2 = 0.0554 | 888.24 ± 0.49 | 884.1 ± 0.5
60000 kPa, x2 = 0.1017 | 877.59 ± 0.52 | 873.27 ± 0.53
60000 kPa, x2 = 0.2004 | 855.9 ± 0.57 | 852 ± 0.58
60000 kPa, x2 = 0.3016 | 835.3 ± 0.62 | 831.63 ± 0.63
60000 kPa, x2 = 0.4097 | 814.87 ± 0.67 | 811.3 ± 0.67
60000 kPa, x2 = 0.498 | 799.57 ± 0.7 | 796.01 ± 0.71
60000 kPa, x2 = 0.5983 | 783.15 ± 0.74 | 779.73 ± 0.75
60000 kPa, x2 = 0.7017 | 767.47 ± 0.78 | 764.12 ± 0.79
60000 kPa, x2 = 0.7995 | 753.62 ± 0.81 | 750.3 ± 0.82
60000 kPa, x2 = 0.9032 | 739.97 ± 0.84 | 736.68 ± 0.85
60000 kPa, x2 = 0.9482 | 734.33 ± 0.86 | 731.11 ± 0.87
65000 kPa, x2 = 0.0554 | 891.92 ± 0.5 | 887.83 ± 0.52
65000 kPa, x2 = 0.1017 | 881.11 ± 0.53 | 877.03 ± 0.54
65000 kPa, x2 = 0.2004 | 859.41 ± 0.59 | 855.63 ± 0.6
65000 kPa, x2 = 0.3016 | 838.73 ± 0.64 | 834.93 ± 0.65
65000 kPa, x2 = 0.4097 | 818.27 ± 0.69 | 814.66 ± 0.7
65000 kPa, x2 = 0.498 | 802.79 ± 0.73 | 799.35 ± 0.74
65000 kPa, x2 = 0.5983 | 786.25 ± 0.77 | 782.96 ± 0.78
65000 kPa, x2 = 0.7017 | 770.47 ± 0.82 | 767.16 ± 0.82
65000 kPa, x2 = 0.7995 | 756.52 ± 0.85 | 753.28 ± 0.86
65000 kPa, x2 = 0.9032 | 742.75 ± 0.89 | 739.66 ± 0.9
65000 kPa, x2 = 0.9482 | 737.09 ± 0.9 | 734.01 ± 0.91
